Measurements from publication PMC7218270 (EBioMedicine, 2020).
≈ marks a conversion by molar mass, not a printed value. Where “and” joins values, the source holds several entries; their conditions need not be identical. Equal values may be shown once.

Tests used:
[1] = tested on: Enterococcus faecalis; assay: MIC, planktonic cells; assay type: cell-based; details: 18 h
[2] = tested on: Mlicrococcus scarlatinae; assay: MIC, planktonic cells; assay type: cell-based; details: 18 h
[3] = tested on: S. pneumoniae; assay: MIC, planktonic cells; assay type: cell-based; details: Streptococcus pneumoniae, 18 h
[4] = tested on: E. coli ATCC25922; assay: MIC, planktonic cells; assay type: cell-based; details: Escherichia coli, ATCC25922, 18 h
[5] = tested on: E. coli A2; assay: MIC, planktonic cells; assay type: cell-based; details: Escherichia coli, A2, 18 h
[6] = tested on: P. aeruginosa CMCC10104; assay: MIC, planktonic cells; assay type: cell-based; details: Pseudomonas aeruginosa, CMCC10104, 18 h
[7] = tested on: P. aeruginosa ATCC27853; assay: MIC, planktonic cells; assay type: cell-based; details: Pseudomonas aeruginosa, ATCC27853, 18 h
[8] = tested on: P. aeruginosa 110; assay: MIC, planktonic cells; assay type: cell-based; details: Pseudomonas aeruginosa, 110, 18 h
[9] = tested on: P. aeruginosa 103; assay: MIC, planktonic cells; assay type: cell-based; details: Pseudomonas aeruginosa, 103, 18 h
[10] = tested on: Drug-susceptible P. aeruginosa; assay: Resistance study, serial passages; assay type: cell-based; details: passages at 1/4 × MIC
[11] = tested on: C. albicans ATCC10231; assay: microbe, parasite or virus in culture; assay type: cell-based; details: Candida albicans, ATCC10231, 72 h
[12] = tested on: C. albicans 7248; assay: microbe, parasite or virus in culture; assay type: cell-based; details: Candida albicans, 7248, 72 h
[13] = tested on: C. albicans 006; assay: microbe, parasite or virus in culture; assay type: cell-based; details: Candida albicans, 006, 72 h
[14] = tested on: C. neoformans ATCC28957; assay: microbe, parasite or virus in culture; assay type: cell-based; details: Cryptococcus neoformans, ATCC28957, 72 h
[15] = tested on: C. neoformans 4906; assay: microbe, parasite or virus in culture; assay type: cell-based; details: Cryptococcus neoformans, 4906, 72 h
[16] = tested on: C. neoformans 6120; assay: microbe, parasite or virus in culture; assay type: cell-based; details: Cryptococcus neoformans, 6120, 72 h
[17] = tested on: C. neoformans 001; assay: microbe, parasite or virus in culture; assay type: cell-based; details: Cryptococcus neoformans, 001, 72 h
[18] = tested on: Drug-susceptible C. albicans; assay type: cell-based
[19] = tested on: fluconazole-resistant C. albicans; parameters: species or system G. mellonella; details: in vivo

Compound	MIC [1] [µg/mL]	MIC [2] [µg/mL]	MIC [3] [µg/mL]	MIC [4] [µg/mL]	MIC [5] [µg/mL]	MIC [6] [µg/mL]	MIC [7] [µg/mL]	MIC [8] [µg/mL]	MIC [9] [µg/mL]	MIC increase ([10]; at the 8th generation) [fold]	MIC increase ([10]; at the 20th generation) [fold]	MIC increase [18]	also measured
CC(C)(O/N=C(\C(=O)N[C@@H]1C(=O)N2C(C(=O)[O-])=C(C[n+]3ccccc3)CS[C@H]12)c1csc(N)n1)C(=O)O [Ceftazidime]	> 128	> 128	> 128	1 (≈ 1.83 µM)	64 (≈ 117 µM)	0.5 (≈ 0.915 µM)	1 (≈ 1.83 µM)	> 128	> 128	4	16	–	–
OC(Cn1cncn1)(Cn1cncn1)c1ccc(F)cc1F [Fluconazole]	–	–	–	–	–	–	–	–	–	–	–	4 fold and 8 fold	MIC [11]: 4 µg/mL (≈ 13.1 µM); MIC [12]: > 128 µg/mL; MIC [13]: 4 µg/mL (≈ 13.1 µM); MIC [14]: 2 µg/mL (≈ 6.53 µM); MIC [15]: 128 µg/mL (≈ 418 µM); MIC [16]: > 128 µg/mL; MIC [17]: 2 µg/mL (≈ 6.53 µM); survival rate of G. mellonella [19]: 40%
CC1(C)S[C@@H]2[C@H](NC(=O)COc3ccccc3)C(=O)N2[C@H]1C(=O)O [Penicillin V potassium]	> 128	> 128	> 128	2	> 128	4	2	> 128	> 128	–	–	–	–
CC(=O)N1CCN(c2ccc(OCC3COC(Cn4ccnc4)(c4ccc(Cl)cc4Cl)O3)cc2)CC1 (stereo not drawn) [ketoconazole]	–	–	–	–	–	–	–	–	–	–	–	4 fold	–
C[C@H]1COc2c(N3CCN(C)CC3)c(F)cc3c(=O)c(C(=O)O)cn1c23 [levofloxacin]	–	–	–	–	–	–	–	–	–	4	8	–	–
Polymyxin B	–	–	–	–	–	–	–	–	–	16	–	–	–
